The record followed here is PubChem BioAssay (NCI).

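Cells were grown in 96-well plates and exposed to each compound for 48 hours at five concentrations; endpoints were interpolated linearly between bracketing concentrations, or set to the highest concentration if not reached. GI50 marks 50% less growth. TGI: concentration producing complete growth inhibition.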

Among the test systems are SNB-19 CNS; SK-MEL-2 melanoma; KM12 colon; SK-OV-3 ovarian; RPMI-8226 leukemia; UO-31 renal; NCI-H460 lung; NCI-H226 lung; OVCAR-8 ovarian; T-47D breast.
What all share (experiment): NCI tumour cell line growth inhibition, 48 h

Regarding `CC/C(Cl)=N\OC(=O)Nc1ccc(F)c([N+](=O)[O-])c1`, the TGI in the assay on SNB-19 CNS was 33.7 µM; with SK-MEL-2 melanoma, 32 µM; in the assay with KM12 colon, 34.2 µM; with SK-OV-3 ovarian, 34.5 µM; in the assay on RPMI-8226 leukemia, over 25.3 µM; in the assay on UO-31 renal, 14.2 µM. Further, the TGI in the assay with NCI-H460 lung is over 100 µM; in the assay with NCI-H226 lung, over 100 µM; in the assay with OVCAR-8 ovarian, 32.8 µM.
As for `O=C([CH-]C(=O)c1ccccc1)c1ccccc1.O=C([CH-]C(=O)c1ccccc1)c1ccccc1.[O]=[U+2]=[O]`, the GI50 in the assay with SNB-19 CNS was 3.36 µM; with SK-OV-3 ovarian it was 4.01 µM; with RPMI-8226 leukemia, 1.99 µM; in the assay with NCI-H460 lung, 1.99 µM; with OVCAR-8 ovarian it was 3.02 µM. Further, the TGI in the assay with SNB-19 CNS is 18.9 µM; in the assay on SK-OV-3 ovarian it was 12.3 µM; with RPMI-8226 leukemia, 6.4 µM; with NCI-H460 lung, 13.1 µM; in the assay on OVCAR-8 ovarian it was over 100 µM.
As to `O=[N+]([O-])c1ccc(C2=Nc3ccccc3SC(c3ccccc3)C2)cc1` (centres undefined), the TGI is 32.3 µM with SNB-19 CNS; 33.2 µM with SK-MEL-2 melanoma; 32.2 µM in the assay with KM12 colon; 46 µM in the assay on SK-OV-3 ovarian; 48.4 µM with RPMI-8226 leukemia; 25.8 µM in the assay with UO-31 renal. The TGI with NCI-H460 lung was determined as 43.9 µM; in the assay with NCI-H226 lung it was 54 µM; with OVCAR-8 ovarian, 40.3 µM.
As to `CCCCC#CS(=O)(=O)C(F)(F)F`, the TGI in the assay with SNB-19 CNS, in the assay on SK-MEL-2 melanoma, in the assay with KM12 colon, with SK-OV-3 ovarian, with RPMI-8226 leukemia and in the assay with UO-31 renal was over 100 µM throughout. Further, the TGI in the assay with NCI-H460 lung, with NCI-H226 lung and in the assay with OVCAR-8 ovarian was over 100 µM throughout.
For the compound `CC1=CC(=O)CC2(C)CCC(C(C)CC(=O)CC(C)C)CC12` (centres undefined), the TGI is over 100 µM with SNB-19 CNS; over 100 µM with SK-MEL-2 melanoma; 36.4 µM with KM12 colon; 60.8 µM with RPMI-8226 leukemia; over 100 µM in the assay with UO-31 renal; over 100 µM in the assay with NCI-H460 lung. Moreover, the TGI in the assay with NCI-H226 lung worked out at 63.2 µM; in the assay with OVCAR-8 ovarian, 53.2 µM.
On to `CC(C)(C)OC(=O)n1c(-c2ccccc2F)cc(=O)c2cc3c(cc21)OCO3`, for which the TGI in the assay with SNB-19 CNS was over 100 µM; with SK-MEL-2 melanoma it was over 100 µM; in the assay on RPMI-8226 leukemia, 20.7 µM; in the assay with NCI-H460 lung, over 70.8 µM; in the assay with T-47D breast it was over 100 µM; in the assay with OVCAR-8 ovarian, 20.4 µM.
Take `C[C@]12CC[C@H](O)C=C1CC[C@@H]1[C@@H]2CC[C@]2(C)C(c3ccc(=O)oc3)CC[C@]12O` (some centres undefined): the TGI in the assay on SNB-19 CNS amounted to 0.237 µM; with SK-MEL-2 melanoma it was 0.0647 µM; with KM12 colon, 0.129 µM; in the assay with SK-OV-3 ovarian, 0.065 µM; in the assay with RPMI-8226 leukemia it was 0.0733 µM; in the assay on UO-31 renal, 0.041 µM. Further, the TGI in the assay with NCI-H460 lung worked out at 0.0156 µM; in the assay on NCI-H226 lung it was 0.154 µM; in the assay with OVCAR-8 ovarian, 0.0527 µM.
Turning to `CC(C)(C)OC(=O)C1C(=O)NC(=O)CC1C(COCc1ccccc1)OCc1ccccc1` (centres undefined), the TGI is over 100 µM in the assay with SNB-19 CNS; 36.7 µM in the assay on KM12 colon; 62.6 µM in the assay on RPMI-8226 leukemia; 55.8 µM in the assay with UO-31 renal; 39.4 µM in the assay with NCI-H226 lung; 38.7 µM in the assay with T-47D breast. For the same compound, the TGI in the assay on OVCAR-8 ovarian is over 100 µM.
Take `O=c1n(Cc2ccccc2)c(=O)n2c(=O)n(Cc3ccccc3)c(=O)n12`: the TGI with SNB-19 CNS, in the assay with KM12 colon, in the assay with SK-OV-3 ovarian, in the assay on RPMI-8226 leukemia, with UO-31 renal and in the assay with NCI-H460 lung was over 100 µM throughout. Also, the TGI in the assay with NCI-H226 lung, with T-47D breast and in the assay with OVCAR-8 ovarian was over 100 µM each time.
Regarding `CCCOC(=O)NC(C)C(=O)NC(CCC(=O)NC(CCCC(N)C(=O)O)C(=O)NC(C)C(=O)O)C(=O)O` (centres undefined), the TGI is 71 µM in the assay with SNB-19 CNS; over 100 µM in the assay with SK-MEL-2 melanoma; 27.4 µM with KM12 colon; 32.2 µM in the assay on RPMI-8226 leukemia; over 100 µM in the assay with UO-31 renal; over 100 µM with NCI-H460 lung. Further, the results for the TGI with T-47D breast and in the assay with OVCAR-8 ovarian were 41.7 µM and 33.9 µM, respectively.
For the compound `c1csc(-c2c3ccc(=[N+]4CCCCC4)cc-3oc3cc(N4CCCCC4)ccc23)c1`, the GI50 with SK-OV-3 ovarian was 0.212 µM; in the assay with UO-31 renal it was 0.136 µM. Besides, the TGI in the assay on SK-OV-3 ovarian stood at 0.682 µM; with UO-31 renal, 0.277 µM.
As for `Cc1ccc(-c2c(C#N)c(-c3ccc([N+](=O)[O-])cc3)c(C#N)c(=O)n2NS(=O)(=O)c2ccccc2)cc1`, the TGI with SNB-19 CNS, in the assay on SK-MEL-2 melanoma, in the assay with KM12 colon, in the assay with SK-OV-3 ovarian, in the assay on NCI-H460 lung and in the assay on NCI-H226 lung was over 100 µM in each case. Moreover, the TGI with OVCAR-8 ovarian is over 100 µM.
For the compound `C[C@]1(S(=O)(=O)c2ccccc2)C[C@H]2N(Cc3ccccc3)[C@@H]1CCC21OCCO1`, the TGI in the assay with SNB-19 CNS, with SK-MEL-2 melanoma, in the assay on KM12 colon, with SK-OV-3 ovarian, in the assay with UO-31 renal and in the assay on NCI-H460 lung was over 100 µM each time. The TGI in the assay with T-47D breast and in the assay with OVCAR-8 ovarian was over 100 µM in each case.
With `CN1COCc2cc3cc4c(cc3nc21)OCCO4`, the TGI is over 100 µM with SNB-19 CNS; over 100 µM in the assay on SK-MEL-2 melanoma; over 100 µM with KM12 colon; over 100 µM in the assay with SK-OV-3 ovarian; 62.5 µM in the assay on RPMI-8226 leukemia; over 100 µM in the assay with NCI-H460 lung. In addition, the TGI with NCI-H226 lung and in the assay with OVCAR-8 ovarian was over 100 µM each time.
`O=C(Nc1ccc(-n2cc(-c3ccncc3)c(-c3ccc(O)c(Cl)c3)n2)cc1)Nc1cccc(Cl)c1Cl`: the GI50 was 15.8 µM in the assay with SNB-19 CNS; 7.18 µM in the assay on SK-MEL-2 melanoma; 5.95 µM with KM12 colon; 0.912 µM with RPMI-8226 leukemia; 6.67 µM in the assay with UO-31 renal; 5.74 µM in the assay on NCI-H460 lung. For the same compound, the GI50 was over 32.5 µM in the assay on NCI-H226 lung, 8.62 µM with T-47D breast and 6.86 µM with OVCAR-8 ovarian. The TGI with SNB-19 CNS was over 32.5 µM; in the assay on SK-MEL-2 melanoma it was over 32.5 µM; in the assay on KM12 colon it was over 32.5 µM; in the assay with RPMI-8226 leukemia, 6.08 µM; with UO-31 renal it was over 32.5 µM; in the assay on NCI-H460 lung it was over 32.5 µM. Besides, the TGI in the assay on NCI-H226 lung, with T-47D breast and with OVCAR-8 ovarian was over 32.5 µM throughout.
